# pIC50: −log10 of the molar value. Where two headings read alike, the source gives them in different places.
# Key:
# [1] = Maximal electroshock (MES)-induced convulsions in mice; format: in vivo; settings: for ED50: Mus musculus, ip, 0.5 h, read-out: MES ED50
# Experimental: (§1) NMR female mice (18-28 g) housed 5 per cage were used for the maximal electroshock (MES) and motor impairment tests. […] All compounds were dissolved in 0.9% saline.
# (§2) The MES test was performed together with tests for myorelaxant action (traction reflex) and motor coordination (rotarod). For the traction reflex test mice were placed with their forepaws on a horizontal rod and were required to place all 4 paws on the wire within 10 seconds. To test ataxia (motor coordination) mice were placed on rotarod (5 rpm) and were required to remain on the rod for 1 minute. […] These tests were followed by MES (100 Hz, 0.5 second shock duration, 50 mA shock intensity, 0.9 ms impulse duration, Ugo Basile) applied through corneal electrodes. The presence of tonic convulsions was scored (tonic extension of hind paws with minimum angle to the body of 90°). The aim was to obtain ED50 s for all parameters scored (anticonvulsive activity and motor side effects) with use of the Litchfield Wilcoxon test for quantal dose responses. Division of the ED50 for side effects (ataxia or myorelaxation) by the ED50 for antagonism of electroshock convulsions was used as a therapeutic index (TI). […]
# [2] = tested on: cortical neurones; experiment: Excitotoxicity: glutamate toxicity in cultured cortical neurones (MTT); format: cell-based, rat; settings: Rattus norvegicus, Cortical neurone
# Experimental: Cortical neurones were obtained from cerebral cortices of 17/18 day old fetal rats (Wistar), in general following the dissociation procedure described by. After short trypsinization and gentle trituration with fire-polished Pasteur pipettes, the cell suspension was washed by centrifugation. Cells were suspended in serum-free Neurobasal medium with B27 supplement (GIBCO) before plating onto poly-L-lysine (Sigma; 0.2 mg/ml, 20 h, 4° C.) and laminin (Sigma; 2 μg/ml, 1 h, 37° C.)-coated 96-well plates (Falcon, Primaria) at a density of 5×10^4 cells/well. Cortical neurones were maintained at 37° C. in humidified 10% CO2 /90% air. […] The medium was changed first after 4 days in vitro and then every 4 days by replacing 2/3 of the medium with astrocyte-conditioned medium. Cortical neurones between day 12 and 14 in culture were used for the experiments.
# New-born rat astrocytes were isolated non-enzymatically according to the method of [24]. Briefly, both hemispheres were dissected from 2-day-old rats, passed through an 80 μm gauze, and triturated with Pasteur pipettes. Cell suspension was made in Dulbecco's modified essential medium (DMEM, Gibco) supplemented with 10% fetal calf serum (FCS, Hyclone), 2 mM glutamine (Gibco) and 50 μg/ml gentamycin and transferred into untreated, plastic culture flasks (Corning; […]). Two days after plating the flasks were shaken for 10 minutes on a rotary platform (150 U/min) to remove microglial cells. The cultures were grown to confluency within 14 days, and the culture medium was changed twice weekly. Thereafter, the glial monolayers were extensively washed with serum-free Neurobasal medium (Gibco) to remove the serum. Flasks were then shaken several times to remove oligodendrocytes and neurones. To obtain conditioned medium from primary astrocytes, the cultures were incubated with fresh Neurobasal medium supplemented with B27 andglutamine. Every 2-3 days the conditioned medium was collected and replaced by fresh medium up to 4 times.
# Exposure to EAA was performed in serum-free Neurobasal medium containing 100 μM glutamate and the drug to be tested. After 20 h of incubation, the cytotoxic effect was morphologically examined under a phase contrast microscope and biochemically quantified by measuring cell viability with the MTT test (Promega). This calorimetric assay measures the reduction of a tetrazolium component (MTT) into an insoluble formazan product by the mitochondria of living cells. After incubation of the cortical neurones with the dye solution for approximately 1-4 hours, a solubilization solution was added to lyse the cells and solubilize the colored product (incubation overnight at 37° C., 10% CO2, 90% RH). These samples were then read using an Elisa plate reader (Thermomax, MWG Biotech) at a wavelength of 570 nm. The amount of color produced was directly proportional to the number of viable cells.
# (§3) IC50 s in patch clamp, excitotoxicity, and binding studies were calculated according to the four parameter logistic equation using the Grafit computer program (Erithacus Software, England). Ki value for binding studies were then determined according to Cheng and Prusoff. Binding values presented are means±SEM of 3-5 determinations (each performed in duplicate). […] Pearson product moment correlation analysis (Sigma Stat, Jandel Scientific) was used to compare in vitro potencies and in vivo anticonvulsant activity.
# [3] = Experimental: All animals were kept with water and food ad libitum under a 12 hour light-dark cycle (light on at 6 a.m.) and at a controlled temperature (20±0.5° C.). All e experiments were performed between 10 a.m. and 5 p.m. Tested agents were injected 30 min. i.p. before the induction of convulsions if not stated otherwise (see below). All compounds were dissolved in 0.9% saline.
# [4] = tested on: NMDA receptor; experiment: Patch clamp: NMDA-induced inward currents in cultured hippocampal neurones; format: cell-based, rat
# Experimental: Hippocampi were obtained from rat embryos (E20 to E21) and were then transferred to calcium and magnesium free Hank's buffered salt solution (Gibco) on ice. Cells were mechanically dissociated in 0.05% DNAase/0.3% ovomucoid (Sigma) following an 8 minute pre-incubation with 0.66% trypsin/0.1% DNAase (Sigma). The dissociated cells were then centrifuged at 18 ×g for 10 minutes, re-suspended in minimum essential medium (Gibco) and plated at a density of 150,000 cells cm^-2 onto poly-L-lysine (Sigma)-precoated plastic petri dishes (Falcon). The cells were nourished with NaHCO3 /HEPES-buffered minimum essential medium supplemented with 5% fetal calf serum and 5% horse serum (Gibco) and incubated at 37° C. with 5% CO2 at 95% humidity. […] Thereafter the medium was exchanged partially twice weekly.
# Patch clamp recordings were made from these neurones with polished glass electrodes (4-6 m.OMEGA.) in the whole cell mode at room temperature (20-22° C.) with the aid of an EPC-7 amplifier (List). Test substances were applied by switching channels of a custom-made fast superfusion system with a common outflow (10-20 ms exchange times). The contents of the intracellular solution were as follows (mM): CsCl (120), TEACl (20), EGTA (10), MgCl2 (1), CaCl2 -(0.2), glucose (10), ATP(2), cAMP (0.25); pH was adjusted to 7.3 with CsOH or HC1. The extracellular solutions had the following basic composition (mM): NaCl (140), KCl (3), CaCl2 (0.2), glucose (10), HEPES (10), sucrose (4.5), tetrodotoxin (TTX 3*10^-4). Glycine (1 μM) was present in all solutions: a concentration sufficient to cause around 80-85% activation of glycineB receptors. Only results from stable cells were accepted for inclusion in the final analysis, i.e., following recovery of responses to NMDA by at least 75% of their depression by the antagonists tested.
# as §3
# [5] = Traction reflex test (myorelaxant action) in mice, therapeutic index versus MES; format: in vivo; settings: ED50 for traction reflex impairment divided by ED50 for MES; 30 min
# Experimental: as §1, §2
# [6] = Table 7, mice, i.p., 30 min before
# [7] = Table 8, mice, i.p., 95% confidence limits in parentheses
# [8] = Table 7, 100 μM glutamate, 20 h, read-out: Glut. Tox. IC50
# [9] = Table 9, 100 μM glutamate, read-out: Glut Tox IC50
# [10] = Table 7; NMDA 200 μM with glycine 1 μM at -70 mV; read-out: Patch Clamp IC50
# [11] = Table 9; NMDA-induced currents; read-out: Patch Clamp IC50
structure (smiles),measurement,setting,value
C[C@@H]1CC(C)(C)C[C@@](C)(N)C1 (relative stereo) [Mrz 2/607],ED50,[1]; [6],22.9 mg/kg
same,ED50,[1]; [7],22.9 mg/kg
same,pIC50,[2]; [8],5.00
same,pIC50,[2]; [9],5.00
same,Min Lethality,"[3]; mouse, in vivo, ip",50 mg/kg
same,pIC50,[4]; [10],4.86
same,pIC50,[4]; [11],4.86
same,TI Tract,[5],1.3
CCC[C@@]1(C)C[C@H](C)C[C@@](C)(N)C1 (relative stereo) [Mrz 2/618],ED50,[1]; [6],24 mg/kg
same,ED50,[1]; [7],24 mg/kg
same,pIC50,[2]; [8],4.75
same,pIC50,[2]; [9],4.75
same,Min Lethality,"[3]; mouse, in vivo, ip",> 50 mg/kg
same,pIC50,[4]; [10],4.36
same,pIC50,[4]; [11],4.24
same,TI Tract,[5],1.2
CCC[C@]1(C)C[C@@H](C)C[C@@](C)(N)C1 (relative stereo) [Mrz 2/619],ED50,[1]; [6],44.6 mg/kg
same,ED50,[1]; [7],44.6 mg/kg
same,pIC50,[2]; [8],4.51
same,pIC50,[2]; [9],4.51
same,Min Lethality,"[3]; mouse, in vivo, ip",> 50 mg/kg
same,pIC50,[4]; [10],4.22
same,pIC50,[4]; [11],4.22
same,TI Tract,[5],1.0
CC[C@@]1(C)C[C@H](C)C[C@@](C)(N)C1 (relative stereo) [Mrz 2/622],ED50,[1]; [6],21 mg/kg
same,ED50,[1]; [7],21 mg/kg
same,pIC50,[2]; [8],4.71
same,pIC50,[2]; [9],4.71
same,Min Lethality,"[3]; mouse, in vivo, ip",50 mg/kg
same,pIC50,[4]; [10],4.19
same,pIC50,[4]; [11],4.24
same,TI Tract,[5],1.1
CC[C@]1(C)C[C@@H](C)C[C@@](C)(N)C1 (relative stereo) [Mrz 2/624],ED50,[1]; [6],47.2 mg/kg
same,ED50,[1]; [7],47.2 mg/kg
same,pIC50,[2]; [8],5.57
same,pIC50,[2]; [9],5.57
same,Min Lethality,"[3]; mouse, in vivo, ip",100 mg/kg
same,pIC50,[4]; [10],4.51
same,pIC50,[4]; [11],4.51
same,TI Tract,[5],0.9
C[C@@H]1CCC[C@@](C)(N)C1 (relative stereo) [Mrz 2/625],ED50,[1]; [6],130 mg/kg
same,ED50,[1]; [7],130 mg/kg
same,pIC50,[2]; [8],4.40
same,pIC50,[2]; [9],4.40
same,Min Lethality,"[3]; mouse, in vivo, ip",> 70 mg/kg
same,pIC50,[4]; [10],3.61
same,pIC50,[4]; [11],3.61
same,TI Tract,[5],0.5
CC[C@H]1CCC[C@@](C)(N)C1 (relative stereo) [Mrz 2/630],ED50,[1]; [6],> 30 mg/kg
same,ED50,[1]; [7],> 30 mg/kg
same,pIC50,[2]; [8],< 4.00
same,pIC50,[2]; [9],< 4.00
same,Min Lethality,"[3]; i.p., minimal lethal dose",> 30 mg/kg
same,pIC50,[4]; [10],< 4.00
same,pIC50,[4]; [11],4.00
C[C@H]1CCC[C@@](C)(N)C1 (relative stereo) [Mrz 2/631],ED50,[1]; [6],30 mg/kg
same,ED50,[1]; [7],30 mg/kg
same,pIC50,[2]; [8],< 4.00
same,pIC50,[2]; [9],< 4.00
same,Min Lethality,"[3]; i.p., minimal lethal dose",> 30 mg/kg
same,pIC50,[4]; [10],< 4.00
same,pIC50,[4]; [11],< 4.00
CCC[C@@H]1CC(C)(C)C[C@](C)(N)C1 (relative stereo) [Mrz 2/634],ED50,[1]; [6],> 30 mg/kg
same,ED50,[1]; [7],> 30 mg/kg
same,pIC50,[2]; [8],4.72
same,pIC50,[2]; [9],4.72
same,Min Lethality,"[3]; i.p., minimal lethal dose",> 30 mg/kg
same,pIC50,[4]; [10],4.97
same,pIC50,[4]; [11],4.97
CCCC1(C)CCCC(C)(N)C1 (stereo not drawn) [Mrz 2/617],ED50,[1]; [6],54.9 mg/kg
same,ED50,[1]; [7],54.9 mg/kg
same,pIC50,[2]; [8],< 4.15
same,pIC50,[2]; [9],< 4.15
same,Min Lethality,"[3]; mouse, in vivo, ip",> 50 mg/kg
same,pIC50,[4]; [10],4.24
same,pIC50,[4]; [11],4.19
CC1(N)CCCCC1 [Mrz 2/641],ED50,[1]; [6],> 50 mg/kg
same,ED50,[1]; [7],> 50 mg/kg
same,pIC50,[2]; [8],< 4.00
same,pIC50,[2]; [9],< 4.00
same,Min Lethality,"[3]; i.p., minimal lethal dose",> 50 mg/kg
same,pIC50,[4]; [10],< 4.00
same,pIC50,[4]; [11],< 4.00
CN(C)C1(C)CC(C)(C)CC(C)(C)C1 [Mrz 2/642],ED50,[1],8.04 mg/kg
same,MES ED50,"[1]; Table 8, mice, i.p., 95% confidence limits in parentheses, 30 min",8.04 (5.1-12.7) mg/kg
same,pIC50,"[2]; 20 h, read-out: Glut. Tox. IC50",4.53
same,pIC50,[2]; read-out: Glut Tox IC50,4.53
same,pIC50,[4]; read-out: Patch Clamp IC50; Table 7; NMDA 200 μM with glycine 1 μM at -70 mV,4.37
same,pIC50,[4]; read-out: Patch Clamp IC50; Table 9; NMDA-induced currents,4.37
same,TI Tract,[5],4.1
CC(C)(N)CC1CC(C)(C)CC(C)(C)C1 [Mrz 2/645],ED50,[1]; [6],65.6 mg/kg
same,ED50,[1]; [7],65.6 mg/kg
same,pIC50,[2]; [8],< 4.00
same,pIC50,[2]; [9],< 4.00
same,pIC50,[4]; [10],4.69
same,pIC50,[4]; [11],4.69

# — patent US6034134A, “1-Amino-alkylcyclohexane NMDA receptor antagonists” (Merz + Co. GmbH & Co., priority 1998, dated 2000)
